Experimental data published in patent US12336977B2, “Nitenin analogue compounds and their use in the treatment of chronic and acute pain” (SEA4US-BIOTECNOLOGIA E RECURSOS MARINHOS, LDA., priority 2019, dated 2025).

Experiments:
hKv1.1 = target: T1, hKv1.1 (Homo sapiens, UniProt Q09470); assay: voltage-clamp of K+ currents in CHO-K1 cells expressing hKv1.1; assay type: cell-based
T1 construct: expressed in transfected cells; host or cells: CHO-K1
Description: (§1) As measure of Ifast, peak current was used, whereas, as a measure of Islow, the current value was obtained at the end of the command pulse (see FIG. 1). Values are expressed as mean±S.E.M. For Islow, a dual phase relationship can be observed. […] Kv1.3 channel is the most sensitive channel (around 6-fold more sensitive in comparison to the “next most sensitive one”, the Kv1.2) Kv1.2, Kv1.1 and Kv1.6 show similar, intermediate sensitivities to nitenin. In opposition, Kv1.4 is the less sensitive (˜31 times less sensitive).
(§2) Additionally, drug sensitivity to different voltage-activated channels was assessed by studying the drug effect on currents recorded from chinese hamster ovary (CHO) cells stably transfected with different human Kv channel subunits (Kv1.1, Kv1.2, Kv1.3, Kv1.4 and Kv1.6).
(§3) The higher sensitivity of nitenin to Islow (rather than Ifast) and the nature of the nitenin sensitive current (see nitenin sensitive current in FIG. 1.b) urged to understand which K^+ channel(s) do underline Islow. By considering which Kv channel subunits are known to be expressed in DRG, and the biophysical nature of the nitenin-sensitive current, nitenin was tested on whole-cell currents recorded from CHO cells expressing hKv1.1, hKv1.2, hKv1.3, hKv1.4 and hKv1.6. […] Current inhibition was measured at the end of the 1000 ms pulse.

[1] = test system: isolated rat atria and isolated rat ventricles; assay: ex vivo rat heart preparations; details: up to 10 μM
[2] = test system: Naïve Wistar control rats; assay: naive Wistar controls, von Frey filaments; assay type: in vivo, rat; details: I.V. injections
Experimental: […]
(§4) For efficacy studies, nociception was assessed in all animals from all pain models by regular behavioural monitoring, by quantifying the sensitivity to mechanical stimuli with Von Frey filaments, and consequently reflecting hyperalgesia when hypersensitive. […] Intraperitoneal administration was tested in CFA rats (23 days after CFA injection), with 10 times the nitenin quantity administered by I.V. injections. […] Oral administration of nitenin through stomach gavages (endogastric), with 100 times the quantity administered by I.V. injections, was tested in CCI rats (31 days after surgery). […]

STZ rats = assay: diabetic neuropathic pain rat model STZ, von Frey filaments; assay type: in vivo; details: I.V. 1 μg/mL of blood; 60 days after STZ
Experimental: […]
as §4

hKv1.6 = target: T2, hKv1.6 (Homo sapiens, UniProt P17658); assay: voltage-clamp of K+ currents in CHO-K1 cells expressing hKv1.6; assay type: cell-based
T2 construct: expressed in transfected cells; host or cells: CHO-K1
T2 sequence (P17658 whole entry): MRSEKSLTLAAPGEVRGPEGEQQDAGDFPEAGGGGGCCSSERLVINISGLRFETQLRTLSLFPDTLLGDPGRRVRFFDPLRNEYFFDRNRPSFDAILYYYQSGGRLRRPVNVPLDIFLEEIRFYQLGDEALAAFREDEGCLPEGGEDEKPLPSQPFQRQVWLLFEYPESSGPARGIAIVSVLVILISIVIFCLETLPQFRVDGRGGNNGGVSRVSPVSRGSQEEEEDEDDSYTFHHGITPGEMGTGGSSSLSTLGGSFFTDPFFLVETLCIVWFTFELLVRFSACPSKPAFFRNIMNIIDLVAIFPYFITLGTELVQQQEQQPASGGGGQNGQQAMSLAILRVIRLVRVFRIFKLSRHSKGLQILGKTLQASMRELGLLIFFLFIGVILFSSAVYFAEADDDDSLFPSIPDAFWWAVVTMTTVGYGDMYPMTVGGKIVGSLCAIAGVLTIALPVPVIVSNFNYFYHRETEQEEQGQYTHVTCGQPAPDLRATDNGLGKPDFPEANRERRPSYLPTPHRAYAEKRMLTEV
Description: as §1, §2, §3

anesthetized Wistar rats = assay: in vivo ECG recordings of anesthetized Wistar rats; set-up: species or system rat; details: intravenous 60 μg/Kg
[3] = test system: CFA rats (knee administrations of Complete Freund's Adjuvant on Wistar rats); assay: inflammatory pain rat model CFA, von Frey filaments; assay type: in vivo
Experimental: […]
as §4

[4] = test system: slow currents from large diameter DRG neurons; assay: slow currents of large diameter DRG neurons; assay type: cell-based, rat; details: relative to sdDRGNs
Description: The K^+ currents affected by the identified compounds, recorded from sdDRGNs (and sdTGNs) by whole-cell voltage-clamp techniques, were object of intensive research by the applicant in the area of pain neurophysiology. The use of rat pain models was fundamental to perform previous target validation, i.e., to determine the K^+ current component differentially expressed in pain conditions. […] The nature of the recorded modulatory effect on the currents was studied by monitoring several biophysical parameters, such as voltage dependencies of activation and inactivation and kinetics. The specificity of the bioactivity was carried out by comparing the pharmacological effect on currents recorded from the sdDRGNs with those in other types of dorsal root ganglia (medium and large diameter DGRs).
Lastly, regarding specificity, it is important to note that the slow currents obtained from large diameter DRG neurons are around 10 times less sensitive to nitenin.

T1 sequence (Q09470 whole entry): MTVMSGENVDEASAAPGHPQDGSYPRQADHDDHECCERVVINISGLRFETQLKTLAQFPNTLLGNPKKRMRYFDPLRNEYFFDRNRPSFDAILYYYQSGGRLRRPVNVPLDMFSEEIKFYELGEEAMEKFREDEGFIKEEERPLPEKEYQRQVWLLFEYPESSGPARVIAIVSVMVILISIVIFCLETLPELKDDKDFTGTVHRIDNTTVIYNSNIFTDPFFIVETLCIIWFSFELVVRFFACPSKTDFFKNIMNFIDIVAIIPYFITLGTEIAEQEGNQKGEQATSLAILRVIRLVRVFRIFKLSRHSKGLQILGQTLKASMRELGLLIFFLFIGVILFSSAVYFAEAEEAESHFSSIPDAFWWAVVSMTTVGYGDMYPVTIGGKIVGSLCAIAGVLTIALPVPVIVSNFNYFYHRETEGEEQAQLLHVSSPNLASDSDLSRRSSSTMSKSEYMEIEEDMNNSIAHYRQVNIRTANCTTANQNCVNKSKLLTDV

Structure (SMILES): C/C(=C\C1C/C(=C/CCc2ccoc2)C(=O)O1)CCCc1ccoc1 (stereo not drawn) [nitenin]
- lower sensitivity of hKv1.1 relative to Kv1.3 (hKv1.1): ~6 ×
- sinus heart rate ([1]; ex vivo): does not change
- atrial inotropy ([1]; isolated rat atria): does not change
- right ventricular (RV) inotropy ([1]; isolated rat ventricles): does not change
- sensitivity scores, both paws [2]: never any change in sensitivity scores
- mechanical sensitivity in the hypersensitive paws (STZ rats): decrease of mechanical sensitivity
- lower sensitivity of hKv1.6 relative to Kv1.3 (hKv1.6): ~6 ×
- arrhythmia or pro-arrhythmic phenomena (ECG) (anesthetized Wistar rats): neither induced arrhythmia or any pro-arrhythmic phenomena
- sinus rhythm and heart rate (ECG) (anesthetized Wistar rats): did not change
- sensitivity to mechanical stimuli (von Frey) ([3]; I.V. 1 μg/mL of blood, 3, 18 and 23 days after CFA): noticeable decrease of sensitivity to mechanical stimuli
- mitigation effect of pain (score values) ([3]; intraperitoneal, 10 times the I.V. quantity, 23 days after CFA injection): clear mitigation effect of pain with score values reaching control levels
- lower sensitivity of slow currents of large diameter DRG neurons [4]: around 10 times
